Reference: US20080051420A1, “New Compounds 317” (AstraZeneca AB, priority 2006, published 2008)

The compounds below were run against T1, human β-secretase (Homo sapiens, UniProt P56817) (assay: TR-FRET assay (β-secretase enzyme, sBACE-Fc)). Conditions: not given.
T1 construct: The soluble part of the human β-secretase (AA 1-AA 460) was cloned; made in house
Assay type: biochemical
Method: The enzyme used in the IGEN Cleavage-, Fluorescent-, TR-FRET- and BiaCore assays is described as follows:
The soluble part of the human β-secretase (AA 1-AA 460) was cloned into the ASP2-F10-1-IRES-GFP-neoK mammalian expression vector. The gene was fused to the Fc domain of IgG1 (affinity tag) and stably cloned into HEK 293 cells. Purified sBACE-Fc is stored in Tris buffer, pH 9.2 and has a purity of 95%.
Enzyme was diluted to 6 μg/mL and the substrate (Europium)[…](Qsy7) to 200 nM in reaction buffer (NaAcetate, chaps, triton x-100, EDTA pH 4.5). Compounds were diluted to the desired concentration in dimethyl sulfoxide (final dimethyl sulfoxide concentration in assay is 5%). […] Enzyme (9 μL) and 1 μL of compound in dimethyl sulfoxide was added to the plate, mixed and pre-incubated for 10 min. Substrate (10 μL) was added and the reaction proceeded in the dark for 15 min at RT. The reaction was stopped with the addition of 7 μL NaAcetate, pH 9. […] The dimethyl sulfoxide control defined the 100% activity level and 0% activity was defined by exclusion of the enzyme (using reaction buffer instead).

T1 sequence (P56817 22-460): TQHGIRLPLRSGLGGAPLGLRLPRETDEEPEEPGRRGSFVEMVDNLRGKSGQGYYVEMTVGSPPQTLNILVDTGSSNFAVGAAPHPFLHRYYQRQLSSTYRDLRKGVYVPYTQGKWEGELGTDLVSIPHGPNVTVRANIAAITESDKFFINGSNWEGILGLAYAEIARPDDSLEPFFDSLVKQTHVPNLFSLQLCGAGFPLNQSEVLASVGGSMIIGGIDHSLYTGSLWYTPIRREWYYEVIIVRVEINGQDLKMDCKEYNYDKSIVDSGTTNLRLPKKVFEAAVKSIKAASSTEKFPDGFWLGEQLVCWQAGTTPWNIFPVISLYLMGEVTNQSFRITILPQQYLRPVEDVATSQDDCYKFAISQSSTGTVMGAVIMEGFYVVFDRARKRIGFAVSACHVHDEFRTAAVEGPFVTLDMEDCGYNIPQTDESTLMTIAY

Compound	IC50
COc1ccc(C2(c3cccc(-c4cc(OC)cc(OS(C)(=O)=O)c4)c3)N=C(N)N3CCN=C32)cc1 (stereo not shown) [Example 73, 3′-[5-Amino-7-(4-methoxyphenyl)-2,7-dihydro-3H-imidazo[1,5-a]imidazol-7-yl]-5-methoxybiphenyl-3-yl methanesulfonate acetate]	0.19 µM

Same assay, conditions: read-out: IC50 in TR-FRET assay

Compound	IC50
4-[5-Amino-7-(3′,5′-dichlorobiphenyl-3-yl)-2,7-dihydro-3H-imidazo[1,5-a]imidazol-7-yl]phenyl methanesulfonate 0.25 acetate [Example 75]	0.146 µM
COc1cccc(-c2cccc(C3(c4ccc(OS(C)(=O)=O)cc4)N=C(N)N4CCCN=C43)c2)c1 (stereo not shown) [Example 31, 4-[6-Amino-8-(3′-methoxybiphenyl-3-yl)-2,3,4,8-tetrahydroimidazo[1,5-a]pyrimidin-8-yl]phenyl methanesulfonate acetate]	0.156 µM
CS(=O)(=O)Oc1ccc(C2(c3cccc(-c4cnccn4)c3)N=C(N)N3CCCN=C32)cc1 (stereo not shown) [Example 32, 4-[6-Amino-8-(3-pyrazin-2-ylphenyl)-2,3,4,8-tetrahydroimidazo[1,5-a]pyrimidin-8-yl]phenyl methanesulfonate acetate]	0.501 µM
CS(=O)(=O)Oc1ccc(C2(c3cccc(-c4cncc(F)c4)c3)N=C(N)N3CCCN=C32)cc1 (stereo not shown) [Example 33, 4-{6-Amino-8-[3-(5-fluoropyridin-3-yl)phenyl]-2,3,4,8-tetrahydroimidazo[1,5-a]pyrimidin-8-yl}phenyl methanesulfonate acetate]	0.397 µM
COc1cncc(-c2cccc(C3(c4ccc(OS(C)(=O)=O)cc4)N=C(N)N4CCCN=C43)c2)c1 (stereo not shown) [Example 34, 4-{6-Amino-8-[3-(5-methoxypyridin-3-yl)phenyl]-2,3,4,8-tetrahydroimidazo[1,5-a]pyrimidin-8-yl}phenyl methanesulfonate acetate]	0.161 µM
CS(=O)(=O)Oc1ccc(C2(c3cccc(-c4cccc(OC(F)(F)F)c4)c3)N=C(N)N3CCCN=C32)cc1 (stereo not shown) [Example 41, 4-{6-Amino-8-[3′-(trifluoromethoxy)biphenyl-3-yl]-2,3,4,8-tetrahydroimidazo[1,5-a]pyrimidin-8-yl}phenyl methanesulfonate 0.5 acetate]	0.981 µM
CCOc1cccc(-c2cccc(C3(c4ccc(OS(C)(=O)=O)cc4)N=C(N)N4CCCN=C43)c2)c1 (stereo not shown) [Example 44, 4-[6-Amino-8-(3′-ethoxybiphenyl-3-yl)-2,3,4,8-tetrahydroimidazo[1,5-a]pyrimidin-8-yl]phenyl methanesulfonate 0.5 acetate]	0.471 µM
COc1ccc(C2(c3cccc(-c4cc(OC)cc(OS(C)(=O)=O)c4)c3)N=C(N)N3CCCN=C32)cc1 (stereo not shown) [Example 52, 3′-[6-Amino-8-(4-methoxyphenyl)-2,3,4,8-tetrahydroimidazo[1,5-a]pyrimidin-8-yl]-5-methoxybiphenyl-3-yl methanesulfonate acetate]	0.043 µM
CCCS(=O)(=O)Oc1ccc(C2(c3cccc(-c4cnccn4)c3)N=C(N)N3CCCN=C32)cc1 (stereo not shown) [Example 54, 4-[6-Amino-8-(3-pyrazin-2-ylphenyl)-2,3,4,8-tetrahydroimidazo[1,5-a]pyrimidin-8-yl]phenyl propane-1-sulfonate acetate]	0.347 µM
CCCS(=O)(=O)Oc1ccc(C2(c3cccc(-c4cccc(OC)c4)c3)N=C(N)N3CCCN=C32)cc1 (stereo not shown) [Example 55, 4-[6-Amino-8-(3′-methoxybiphenyl-3-yl)-2,3,4,8-tetrahydroimidazo[1,5-a]pyrimidin-8-yl]phenyl propane-1-sulfonate 0.75 acetate]	0.139 µM
CCCS(=O)(=O)Oc1ccc(C2(c3cccc(-c4cccc(Cl)c4)c3)N=C(N)N3CCCN=C32)cc1 (stereo not shown) [Example 57, 4-[6-Amino-8-(3′-chlorobiphenyl-3-yl)-2,3,4,8-tetrahydroimidazo[1,5-a]pyrimidin-8-yl]phenyl propane-1-sulfonate 0.75 acetate]	0.071 µM
CCCS(=O)(=O)Oc1ccc(C2(c3cccc(-c4cccnc4F)c3)N=C(N)N3CCCN=C32)cc1 (stereo not shown) [Example 59, 4-{6-Amino-8-[3-(2-fluoropyridin-3-yl)phenyl]-2,3,4,8-tetrahydroimidazo[1,5-a]pyrimidin-8-yl}phenyl propane-1-sulfonate acetate]	0.221 µM
CCCS(=O)(=O)Oc1ccc(C2(c3cccc(-c4cccc(C(F)(F)F)c4)c3)N=C(N)N3CCCN=C32)cc1 (stereo not shown) [Example 60, 4-{6-Amino-8-[3′-(trifluoromethyl)biphenyl-3-yl]-2,3,4,8-tetrahydroimidazo[1,5-a]pyrimidin-8-yl}phenyl propane-1-sulfonate 0.5 acetate]	0.493 µM
CCCS(=O)(=O)Oc1ccc(C2(c3cccc(-c4ccc(F)c(OC)c4)c3)N=C(N)N3CCCN=C32)cc1 (stereo not shown) [Example 61, 4-[6-Amino-8-(4′-fluoro-3′-methoxybiphenyl-3-yl)-2,3,4,8-tetrahydroimidazo[1,5-a]pyrimidin-8-yl]phenyl propane-1-sulfonate 0.75 acetate]	0.671 µM
CCCS(=O)(=O)Oc1ccc(C2(c3cccc(-c4cccc(Cl)c4F)c3)N=C(N)N3CCCN=C32)cc1 (stereo not shown) [Example 62, 4-[6-Amino-8-(3′-chloro-2′-fluorobiphenyl-3-yl)-2,3,4,8-tetrahydroimidazo[1,5-a]pyrimidin-8-yl]phenyl propane-1-sulfonate 0.75 acetate]	0.254 µM
CCCS(=O)(=O)Oc1ccc(C2(c3cccc(-c4cc(Cl)ccc4Cl)c3)N=C(N)N3CCCN=C32)cc1 (stereo not shown) [Example 63, 4-[6-Amino-8-(2′,5′-dichlorobiphenyl-3-yl)-2,3,4,8-tetrahydroimidazo[1,5-a]pyrimidin-8-yl]phenyl propane-1-sulfonate 0.75 acetate]	0.912 µM
CCCS(=O)(=O)Oc1ccc(C2(c3cccc(-c4cncc(OC)c4)c3)N=C(N)N3CCCN=C32)cc1 (stereo not shown) [Example 64, 4-{6-Amino-8-[3-(5-methoxypyridin-3-yl)phenyl]-2,3,4,8-tetrahydroimidazo[1,5-a]pyrimidin-8-yl}phenyl propane-1-sulfonate 0.75 acetate]	0.096 µM

Now from value to compound:

IC50	Compound
0.248 µM	COc1cccc(-c2cccc(C3(c4ccc(OS(=O)(=O)C5CC5)cc4)N=C(N)N4CCCN=C43)c2)c1 (stereo not shown) [Example 65, 4-[6-Amino-8-(3′-methoxybiphenyl-3-yl)-2,3,4,8-tetrahydroimidazo[1,5-a]pyrimidin-8-yl]phenyl cyclopropane sulfonate 0.75 acetate]
0.066 µM	NC1=NC(c2ccc(OS(=O)(=O)C3CC3)cc2)(c2cccc(-c3cc(Cl)cc(Cl)c3)c2)C2=NCCCN12 (stereo not shown) [Example 66, 4-[6-Amino-8-(3′,5′-dichlorobiphenyl-3-yl)-2,3,4,8-tetrahydroimidazo[1,5-a]pyrimidin-8-yl]phenyl cyclopropanesulfonate 0.75 acetate]
0.061 µM	NC1=NC(c2ccc(OS(=O)(=O)C3CC3)cc2)(c2cccc(-c3cccc(Cl)c3)c2)C2=NCCCN12 (stereo not shown) [Example 67, 4-[6-Amino-8-(3′-chlorobiphenyl-3-yl)-2,3,4,8-tetrahydroimidazo[1,5-a]pyrimidin-8-yl]phenyl cyclopropane sulfonate 0.75 acetate]
0.313 µM	NC1=NC(c2ccc(OS(=O)(=O)C3CC3)cc2)(c2cccc(-c3cccnc3F)c2)C2=NCCCN12 (stereo not shown) [Example 69, 4-{6-Amino-8-[3-(2-fluoropyridin-3-yl)phenyl]-2,3,4,8-tetrahydroimidazo[1,5-a]pyrimidin-8-yl}phenyl cyclopropane sulfonate 0.75 acetate]
0.62 µM	NC1=NC(c2ccc(OS(=O)(=O)C3CC3)cc2)(c2cccc(-c3cccc(C(F)(F)F)c3)c2)C2=NCCCN12 (stereo not shown) [Example 70, 4-{6-Amino-8-[3′-(trifluoromethyl)biphenyl-3-yl]-2,3,4,8-tetrahydroimidazo[1,5-a]pyrimidin-8-yl}phenyl cyclopropane sulfonate 0.75 acetate]
0.39 µM	NC1=NC(c2ccc(OS(=O)(=O)C3CC3)cc2)(c2cccc(-c3cccc(Cl)c3F)c2)C2=NCCCN12 (stereo not shown) [Example 71, 4-[6-Amino-8-(3′-chloro-2′-fluorobiphenyl-3-yl)-2,3,4,8-tetrahydroimidazo[1,5-a]pyrimidin-8-yl]phenyl cyclopropane sulfonate 0.75 acetate]
0.644 µM	NC1=NC(c2ccc(OS(=O)(=O)C3CC3)cc2)(c2cccc(-c3cc(Cl)ccc3Cl)c2)C2=NCCCN12 (stereo not shown) [Example 72, 4-[6-Amino-8-(2′,5′-dichlorobiphenyl-3-yl)-2,3,4,8-tetrahydroimidazo[1,5-a]pyrimidin-8-yl]phenyl cyclopropane sulfonate 0.5 acetate]
0.449 µM	COc1cccc(-c2cccc(C3(c4ccc(OS(C)(=O)=O)cc4)N=C(N)N4CCN=C43)c2)c1 (stereo not shown) [Example 74, 4-[5-Amino-7-(3′-methoxybiphenyl-3-yl)-2,7-dihydro-3H-imidazo[1,5-a]imidazol-7-yl]phenyl methanesulfonate 0.25 acetate]
0.226 µM	CS(=O)(=O)Oc1ccc(C2(c3cccc(-c4cccc(Cl)c4)c3)N=C(N)N3CCN=C32)cc1 (stereo not shown) [Example 76, 4-[5-Amino-7-(3′-chlorobiphenyl-3-yl)-2,7-dihydro-3H-imidazo[1,5-a]imidazol-7-yl]phenyl methanesulfonate 0.5 acetate]
1.53 µM	CS(=O)(=O)Oc1ccc(C2(c3cccc(-c4cccnc4)c3)N=C(N)N3CCN=C32)cc1 (stereo not shown) [Example 77, 4-[5-Amino-7-(3-pyridin-3-ylphenyl)-2,7-dihydro-3H-imidazo[1,5-a]imidazol-7-yl]phenyl methanesulfonate 0.5 acetate]
